# Data: publication PMC8881610 (Nature Communications, 2022)
# Where a chain is given by its changes, count along the chain named.
# How the values were obtained:
# Assay in all cases: Whole-cell binding assay, competition with 125I-GIP1-42
# Design in all cases: acylated tirzepatide to the full-length or modified; Flag; expressed in transfected cells
# GIPR [1] = biological target: T1, GIPR (Homo sapiens, UniProt P48546, D191A); details: GIPR D191A, CHO-K1
# T1 sequence (P48546 22-466 D191A): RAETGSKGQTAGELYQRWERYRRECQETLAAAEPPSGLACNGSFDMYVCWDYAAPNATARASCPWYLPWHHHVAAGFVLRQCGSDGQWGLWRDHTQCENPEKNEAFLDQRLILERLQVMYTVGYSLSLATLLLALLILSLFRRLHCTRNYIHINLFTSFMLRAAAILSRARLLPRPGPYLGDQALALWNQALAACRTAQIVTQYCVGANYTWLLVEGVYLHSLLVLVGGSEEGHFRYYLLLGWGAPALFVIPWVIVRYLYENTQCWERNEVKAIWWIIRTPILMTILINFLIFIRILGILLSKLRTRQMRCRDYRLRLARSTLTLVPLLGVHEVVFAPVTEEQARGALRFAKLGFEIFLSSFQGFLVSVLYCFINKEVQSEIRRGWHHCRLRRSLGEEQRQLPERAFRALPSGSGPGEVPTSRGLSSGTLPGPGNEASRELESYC
# Summary of the method: (§1)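 Transiently transfected CHO-K1 cells expressing WT or mutant GIPR were washed in F-12 with 0.1% BSA or 0.1% casein and 33 mM HEPES, then incubated 2 h at 37 °C. After ice-cold PBS washes, cells were lysed and bound radioactivity counted (CPM).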
# GIPR [2] = biological target: T2, GIPR (Homo sapiens, UniProt P48546, R370A); details: GIPR R370A, CHO-K1
# T2 sequence (P48546 22-466 R370A): T1 sequence (P48546 22-466 D191A) with A170D, R349A
# Summary of the method: as §1
# GIPR [3] = biological target: T3, GIPR (Homo sapiens, UniProt P48546, Y141A); details: GIPR Y141A, CHO-K1
# T3 sequence (P48546 22-466 Y141A): T1 sequence (P48546 22-466 D191A) with Y120A, A170D
# Summary of the method: as §1
# GIPR [4] = biological target: T4, GIPR (Homo sapiens, UniProt P48546, Y36A); details: GIPR Y36A, CHO-K1; for IC50: read-out: binding pIC50 (converted)
# T4 sequence (P48546 22-466 Y36A): T1 sequence (P48546 22-466 D191A) with Y15A, A170D
# Summary of the method: as §1
# [5] = read-out: binding pIC50 (converted)
smiles,measurement,setting,value
CCCCCCCCCCCCCCCC(=O)N[C@@H](CCC(=O)NCCCC[C@H](NC(=O)[C@H](CC(=O)O)NC(=O)[C@H](CO)NC(=O)[C@@H](NC(=O)[C@H](Cc1ccccc1)NC(=O)[C@@H](NC(=O)CNC(=O)[C@H](CCC(N)=O)NC(=O)C(C)(C)NC(=O)[C@@H](N)Cc1c[nH]cn1)[C@@H](C)O)[C@@H](C)O)C(=O)N[C@@H](CO)C(=O)N[C@@H](CCCCN)C(=O)N[C@@H](Cc1ccc(O)cc1)C(=O)N[C@@H](CC(C)C)C(=O)N[C@@H](CC(=O)O)C(=O)N[C@@H](CCC(=O)O)C(=O)N[C@@H](CCCNC(=N)N)C(=O)N[C@@H](C)C(=O)N[C@@H](C)C(=O)N[C@@H](CCC(N)=O)C(=O)N[C@@H](CC(=O)O)C(=O)N[C@@H](Cc1ccccc1)C(=O)N[C@H](C(=O)N[C@@H](CCC(N)=O)C(=O)N[C@@H](Cc1c[nH]c2ccccc12)C(=O)N[C@@H](CC(C)C)C(=O)N[C@@H](CC(C)C)C(=O)N[C@@H](CC(=O)O)C(=O)NCC(=O)NCC(=O)N1CCC[C@H]1C(=O)N[C@@H](CO)C(=O)N[C@@H](CO)C(=O)NCC(=O)N[C@@H](C)C(=O)N1CCC[C@H]1C(=O)N1CCC[C@H]1C(=O)N1CCC[C@H]1C(=O)N[C@@H](CO)C(N)=O)C(C)C)C(=O)O [Peptide 20],binding Span,GIPR [1],12.29 ± 1.02 % WT
same,IC50,GIPR [1]; [5],9.12 nM
same,binding Span,GIPR [2],22.84 ± 2.01 % WT
same,IC50,GIPR [2]; [5],5.62 nM
same,binding Span,GIPR [3],14.88 ± 1.95 % WT
same,IC50,GIPR [3]; [5],2.4 nM
same,binding Span,GIPR [4],48.19 ± 2.73 % WT
same,IC50,GIPR [4],16.2 nM
CC[C@H](C)[C@H](NC(=O)[C@H](CC(C)C)NC(=O)[C@H](Cc1c[nH]c2ccccc12)NC(=O)[C@H](CCC(N)=O)NC(=O)[C@@H](NC(=O)[C@H](Cc1ccccc1)NC(=O)[C@H](C)NC(=O)[C@H](CCCCNC(=O)COCCOCCNC(=O)COCCOCCNC(=O)CC[C@H](NC(=O)CCCCCCCCCCCCCCCCCCC(=O)O)C(=O)O)NC(=O)[C@H](CCC(N)=O)NC(=O)[C@H](C)NC(=O)[C@@H](NC(=O)[C@H](CCCCN)NC(=O)[C@H](CC(=O)O)NC(=O)[C@H](CC(C)C)NC(=O)C(C)(C)NC(=O)[C@@H](NC(=O)[C@H](CO)NC(=O)[C@H](Cc1ccc(O)cc1)NC(=O)[C@H](CC(=O)O)NC(=O)[C@H](CO)NC(=O)[C@@H](NC(=O)[C@H](Cc1ccccc1)NC(=O)[C@@H](NC(=O)CNC(=O)[C@H](CCC(=O)O)NC(=O)C(C)(C)NC(=O)[C@@H](N)Cc1ccc(O)cc1)[C@@H](C)O)[C@@H](C)O)[C@@H](C)CC)[C@@H](C)CC)C(C)C)C(=O)N[C@@H](C)C(=O)NCC(=O)NCC(=O)N1CCC[C@H]1C(=O)N[C@@H](CO)C(=O)N[C@@H](CO)C(=O)NCC(=O)N[C@@H](C)C(=O)N1CCC[C@H]1C(=O)N1CCC[C@H]1C(=O)N1CCC[C@H]1C(=O)N[C@@H](CO)C(N)=O [Tirzepatide],binding pIC50,GIPR [1],N.B.
same,binding Span,GIPR [2],10.40 ± 2.67 % WT
same,binding pIC50,GIPR [2],N.B.
same,binding pIC50,GIPR [3],N.B.
same,binding Span,GIPR [4],40.56 ± 12.64 % WT
same,IC50,GIPR [4],275 nM
